As a reminder, the kon is the rate constant with which the complex forms.

The assay addresses Beta-lactamase (Enterobacter cloacae, UniProt P05364). Kind of assay: Inhibitor activity against Beta-lactamase, derived from the Gram negative bacteria Enterobacter cloacae at pH 7. As to conditions: read-out: kon (M-1-s-1).

Chain of Beta-lactamase (P05364 whole entry): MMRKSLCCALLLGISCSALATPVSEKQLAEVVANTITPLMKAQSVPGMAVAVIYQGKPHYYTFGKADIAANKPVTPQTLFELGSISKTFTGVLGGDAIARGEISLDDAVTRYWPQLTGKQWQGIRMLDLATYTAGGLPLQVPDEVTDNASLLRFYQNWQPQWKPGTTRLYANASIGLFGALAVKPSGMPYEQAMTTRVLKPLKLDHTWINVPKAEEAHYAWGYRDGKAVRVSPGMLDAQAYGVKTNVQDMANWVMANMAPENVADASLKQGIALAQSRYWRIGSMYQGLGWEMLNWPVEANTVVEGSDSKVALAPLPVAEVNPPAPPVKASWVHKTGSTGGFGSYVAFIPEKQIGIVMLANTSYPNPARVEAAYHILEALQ

On to `O=C(c1ccccc1)N1CCS1(=O)=O`, for which the kon amounted to 163 M⁻¹ s⁻¹.
With `CC(C)C1CN(C(=O)c2ccccc2)S1(=O)=O` (configuration not stated), the kon was 0.07 M⁻¹ s⁻¹.

(Values after BindingDB's records for doi:10.1016/j.bmcl.2003.08.082 (The University of Huddersfield, 2003).)
